Data: patent EP0197800A2, “5-Thiaprostaglandins E1 and process for producing same” (TEIJIN LIMITED, priority 1985, dated 1986)
Values after ≈ are worked out from the molar mass of the structure shown.

Legend:
platelet aggregation [1] = experiment: in vitro inhibitory activity of platelet aggregation (ADP-induced, platelet-rich plasma); format: cell-based, Japanese domestic white male rabbits; settings: Oryctolagus cuniculus; rabbit PRP, 10 µM ADP; minimum concentration which inhibited more than 50% of platelet aggregation; read-out: Inhibition of Platelet in vitro IC50
Method: The in vitro platelet aggregation imhibiting activity of the compound of the invention was examined by using rabbits. Blood was withdrawn from the ear vein of Japanese domestic white male rabbits weighing 2.5 to 3.5 kg. A mixture of a 3.8% trisodium citrate solution and the blood in a ratio of 1:9 was centrifuged at a speed of 1000 rpm for 10 minutes. The upper layer was separated as platelet-rich plasma (PRP). The lower layer was further centrifuged at a speed of 2800 rpm for 10 minutes. The upper layer was separated as platelet- poor plasma (PPP). The number of plate lets was adjusted to 6 x 105/µℓ. to 7 x 105/µℓ. by diluting the PRP with PPP. 25 microliters of the test compound prepared as shown below was added with an amount of 25 to 250 microliters of PRP after the adjustment, and the mixture was pre-incubated at 37°C for 2 minutes, and then 10 µM (final) of ADP was added. Changes in transmission were recorded by using an aggregometer.
The drug was dissolved in ethanol to a concentration of 10 mg/ml, and seccussively diluted with phosphate buffer (pH 7.4) prior to use.
The rate of inhibition of platelet aggregation was determined from the following equation. [formula] • T0: the transmittance of the system containing the phosphate buffer, • T : the transmittance of the system to which the test drug was added. […]

ethanol ulcer = experiment: inhibitory activity on ethanol ulcer; format: in vivo, SD-strain rats; settings: rat ethanol ulcer, oral administration of 4 ug/kg
Method: An ethanol ulcer test was carried out by the following procedure. SD-strain rats (body weight 200 to 220 g; 7 week old) were fasted for 24 hours, and a solution of the test compound in physiological saline buffered with phosphate buffer at pH 7.5 was orally administered. Thirty minutes after the administration, 75% ethanol was orally administered in a dose of 1 ml/kg. One hour later, the abdomen was incised to isolate the stomach. […] The total of these lengths was […] ulcer index. From this measurement, the inhibition of ulcer formatin by the test compound was calculated, to determine the IC50 value.

indomethacin ulcer = experiment: inhibitory activity on indomethacin ulcer; format: in vivo, Wister male rats; settings: rat indomethacin ulcer, oral administration of 40 µg/kg
Method: The inhibiting effect on ulcer formation induced by indomethacin was examined by using Wister male rats (7 weeks old, body weight 220 g) which were fasted for 24 hours, except for water, and then subjected to experiment.
The sample compound to be tested was dissolved in a phosphoric acid buffer (pH 7.4) containing 0.9% NaCl and the solution was orally administered to the rats. 30 minutes after the administration, indomethacin was orally administered to the rats at a dose of 20 mg/kg. 5 hours after the administratin of the indomethacin, the rats were killed and the ulcer formation in the stomach was examined by determining the length of the ulcer formation portion under a stereomicroscope. From this measurement, the inhibition of ulcer formation by the sampel compound was calculated to determine the IC50 values.

blood pressure = experiment: activity on blood pressure, intravenous injection under anesthesia; format: in vivo, male wister rats; settings: Rattus norvegicus, i.v., dosage which caused a 20% lowering of the mean blood pressure, anesthetized rats
Method: The actions of the 5-thiaprostaglandin of the invention on the blood pressure was examined by intravenous injection under anesthesia.
Urehtane (500 mg/kg) and a-chloralose (100 mg/kg) were intraperitoneally administered to male wister rats weighing about 250 g. The rats were anesthetized and fixed in place.
The test compound was dissolved in a small amount of ethanol and diluted with physiological saline to adjust the final ethanol concentration to not more than 5%. The solution was intravenously injected into the rats through a catheter inserted into the femoral vein.
The blood pressure of the rats was measured by a pressure transducer through a catheter inserted into the carotid artery of the rats.
The action of the test compound on the blood pressure was expressed as the dosage (ED20 , ug/kg) of the test compound which caused a 20% lowering of the mean blood pressure before administration of the compound.

platelet aggregation [2] = experiment: extra vivo inhibitory activity of platelet aggregation after oral administration; format: in vivo, Hartley-strain guinea pigs; settings: guinea pigs, oral 0.3-3 mg/kg, blood drawn 1 hour after administration, N.E.: no-effect
Method: The extra vivo platelet aggregation inhibitory activity of the 5-thiaprostaglandin E1 derivatives of the invention were measured by using guinea pigs. A test drug prepared as a 10% ethanol solution of the compound of the invention in ethanol diluted with 10% ethanol-0.5% Tween 80 in saline were orally administered in a dose of 0.3-3 mg/kg, and as a control 10% ethanol-0.5% Tween 80 in saline was orally administered in a dose of 1 ml/kg to Hartley-strain guinea pigs having a body weight of 350 to 450 g which had been fasted for 17 hours. 1 hour after the administration of the compound, blood was drawn off by carbiac puncture using trisodium citrate so that the ratio of the blood to 3.8% trisodium citrate was 9:1. The blood was centrifuged at a speed of 700 rpm for 10 minutes. The upper layer was separated as platelet-rich plasma (PRP). The lower layer was further centrifuged at a speed of 2800 rpm for 10 minutes. The upper layer was separated as platelet poor plasma (PPP). A 250 microliter amount of the - resulting PRP was taken into an aggregometer cuvette and incubated at 37°C for 2 minutes. […] The aggregation curve was recorded for 5 minutes. The maximum degree of aggregation of platelets within this time period was read, and the rate of inhibition of platelet aggregation was calculated from the following equation. […]

## CCCC[C@](C)(O)C/C=C/[C@H]1[C@H](O)CC(=O)[C@@H]1CCSCCCC(=O)OC [Compound of example 6, (16S)-15-deoxy-16-hydroxy-16-methyl-5-thiaprostaglandin E1 methyl ester]
Platelet aggregation [1]
  IC50: 60 µg/mL (≈ 150 µM)
Ethanol ulcer
  prevention rate of ulcer generation: about 50%
Indomethacin ulcer
  preventive rate of ulcer generation: about 50%
Blood pressure
  ED20: 2.1 µg/kg
Platelet aggregation [2]; ADP-induced aggregation
  Inhibition of Platelet extra vivo ADP: N.E.
Platelet aggregation [2]; collagen-induced aggregation
  Inhibition of Platelet extra vivo collagen: N.E.
